This note sets out measurements from US10167284B2, “Spirocyclic compounds as agonists of the muscarinic M1 receptor and/or M4 receptor” (HEPTARES THERAPEUTICS LIMITED, priority 2015, dated 2019).

Experiment [1] concerns the target T1, human muscarinic M1 receptor (Homo sapiens, UniProt P11229).
T1 construct: expressed in transfected cells
T1 sequence (P11229 1-460): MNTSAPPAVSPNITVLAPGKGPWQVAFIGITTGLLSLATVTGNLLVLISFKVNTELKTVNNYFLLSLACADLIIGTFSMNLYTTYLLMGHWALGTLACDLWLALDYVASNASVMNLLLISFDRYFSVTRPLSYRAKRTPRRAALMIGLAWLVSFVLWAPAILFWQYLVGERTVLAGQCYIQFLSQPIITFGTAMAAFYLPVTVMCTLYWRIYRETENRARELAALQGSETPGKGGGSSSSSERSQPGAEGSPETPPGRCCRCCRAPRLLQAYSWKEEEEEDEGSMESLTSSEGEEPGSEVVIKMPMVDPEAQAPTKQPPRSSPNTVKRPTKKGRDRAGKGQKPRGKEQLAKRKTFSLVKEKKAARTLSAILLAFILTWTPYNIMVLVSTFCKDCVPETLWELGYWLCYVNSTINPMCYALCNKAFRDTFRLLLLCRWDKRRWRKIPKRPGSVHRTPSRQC
Briefly: Alphascreen Surefire phospho-ERK1/2 functional assay, M1. The class given is cell-based. Conditions: for EC50 / M1 % Emax cf. ACh: CHO cells stably expressing human M1; for EC50: phospho-ERK1/2, read-out: pEC50 M1 (converted); for Emax: CHO, read-out: M1 % Emax cf. ACh, CHO cells stably expressing human M1; for Emax / M1 % Emax cf. ACh: Emax relative to ACh.
Procedure: (§1) CHO cells stably expressing the human muscarinic M1, M2, M3 or M4 receptor were plated (25K/well) onto 96-well tissue culture plates in MEM-alpha+10% dialysed FBS. Once adhered, cells were serum-starved overnight. Agonist stimulation was performed by the addition of 5 μL agonist to the cells for 5 min (37° C.). Media was removed and 50 μL of lysis buffer added. After 15 min, a 4 μL sample was transferred to 384-well plate and 7 μL of detection mixture added. Plates were incubated for 2 h with gentle agitation in the dark and then read on a PHERAstar plate reader.
(§2) pEC50 and Emax figures were calculated from the resulting data for each receptor subtype.

Experiment [2] addresses T2, human muscarinic M4 receptor (Homo sapiens, UniProt P08173).
T2 construct: expressed in transfected cells
T2 sequence (P08173 1-479): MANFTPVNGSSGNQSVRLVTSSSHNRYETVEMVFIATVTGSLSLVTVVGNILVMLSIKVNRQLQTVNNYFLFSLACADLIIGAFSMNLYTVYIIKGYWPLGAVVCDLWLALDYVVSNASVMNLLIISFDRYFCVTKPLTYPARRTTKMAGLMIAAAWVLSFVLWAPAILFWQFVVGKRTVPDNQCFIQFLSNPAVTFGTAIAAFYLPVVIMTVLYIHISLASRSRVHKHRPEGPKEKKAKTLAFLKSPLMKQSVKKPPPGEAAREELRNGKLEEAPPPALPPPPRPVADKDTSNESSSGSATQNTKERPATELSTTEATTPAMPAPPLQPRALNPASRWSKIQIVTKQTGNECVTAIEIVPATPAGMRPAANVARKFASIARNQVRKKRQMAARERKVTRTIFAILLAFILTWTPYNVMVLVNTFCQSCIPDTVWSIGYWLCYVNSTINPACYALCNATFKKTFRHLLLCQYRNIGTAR
The experiment is described as follows: Alphascreen Surefire phospho-ERK1/2 functional assay, M4. It counts as cell-based. As to conditions: for EC50 / M4 % Emax cf. ACh: CHO cells stably expressing human M4; for EC50: phospho-ERK1/2, read-out: pEC50 M4 (converted); for Emax: CHO, read-out: M4 % Emax cf. ACh, CHO cells stably expressing human M4; for Emax / M4 % Emax cf. ACh: Emax relative to ACh.

In experiment [3] the target is T3, human muscarinic M2 receptor (Homo sapiens, UniProt P08172).
T3 sequence (P08172 1-466): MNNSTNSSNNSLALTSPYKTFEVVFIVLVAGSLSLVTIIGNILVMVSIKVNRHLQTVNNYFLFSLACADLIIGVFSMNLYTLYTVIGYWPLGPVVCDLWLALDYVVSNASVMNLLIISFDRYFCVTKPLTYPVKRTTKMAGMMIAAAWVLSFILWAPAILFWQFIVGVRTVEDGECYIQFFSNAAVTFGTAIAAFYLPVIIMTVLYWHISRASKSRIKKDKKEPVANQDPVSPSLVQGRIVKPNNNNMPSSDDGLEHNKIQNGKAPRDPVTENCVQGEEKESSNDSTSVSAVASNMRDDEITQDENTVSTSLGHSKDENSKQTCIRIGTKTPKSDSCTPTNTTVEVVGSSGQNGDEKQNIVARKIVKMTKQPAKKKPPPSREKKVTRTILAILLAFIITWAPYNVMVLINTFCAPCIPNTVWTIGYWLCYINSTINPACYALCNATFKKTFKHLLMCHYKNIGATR
The experiment is described as follows: Alphascreen Surefire phospho-ERK1/2 functional assay, M2. Conditions: for Emax: CHO, read-out: M2 % Emax cf. ACh, CHO cells stably expressing human M2; for Emax / M2 % Emax cf. ACh: Emax relative to ACh; for EC50: pEC50 M2, CHO cells stably expressing human M2; for EC50 / pEC50 M2: phospho-ERK1/2; for M2 % Emax cf. ACh / pEC50 M2: CHO cells stably expressing human M2.

Experiment [4] has as its target human muscarinic M3 receptor (Homo sapiens, UniProt P20309). Briefly: Alphascreen Surefire phospho-ERK1/2 functional assay, M3. Conditions: for Emax: CHO, read-out: M3 % Emax cf. ACh, CHO cells stably expressing human M3; for Emax / M3 % Emax cf. ACh: Emax relative to ACh; for M3 % Emax cf. ACh / pEC50 M3: CHO cells stably expressing human M3; for pEC50 M3: phospho-ERK1/2.
Procedure: as §1, §2

human muscarinic M3 receptor, sequence (P20309 whole entry): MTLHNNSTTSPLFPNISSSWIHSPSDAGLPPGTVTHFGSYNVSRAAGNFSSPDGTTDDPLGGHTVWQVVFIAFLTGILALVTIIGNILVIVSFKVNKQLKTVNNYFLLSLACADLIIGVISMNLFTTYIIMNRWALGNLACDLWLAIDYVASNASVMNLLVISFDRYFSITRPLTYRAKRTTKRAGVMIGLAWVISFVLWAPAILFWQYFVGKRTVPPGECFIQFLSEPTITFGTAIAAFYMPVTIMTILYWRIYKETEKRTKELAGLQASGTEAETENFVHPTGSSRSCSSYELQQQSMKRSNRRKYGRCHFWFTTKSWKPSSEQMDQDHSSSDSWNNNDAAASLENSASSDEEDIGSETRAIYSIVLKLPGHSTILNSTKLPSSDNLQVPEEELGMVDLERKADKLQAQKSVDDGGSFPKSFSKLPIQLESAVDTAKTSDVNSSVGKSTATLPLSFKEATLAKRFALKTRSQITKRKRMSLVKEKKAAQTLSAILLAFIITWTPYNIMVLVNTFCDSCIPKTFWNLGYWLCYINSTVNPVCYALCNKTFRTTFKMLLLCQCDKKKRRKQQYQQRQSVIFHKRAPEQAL

Turning to `COC(=O)N1CCC2(CC(N3CCC4(CC3)CNC(=O)C4)C2)C1` (single isomer, unassigned) [3-1 Isomer 2], the EC50 in experiment [1] is 79.4 nM; in experiment [2], 100 nM; in experiment [3], above 20000 nM; in experiment [4] it was above 20000 nM. For the same compound, the maximum response (Emax) turned out to be 87% in experiment [1], 50% in experiment [2], 14% in experiment [3] and 20% in experiment [4].

As to `CCOC(=O)N1CCC2(CC(N3CCC4(CC3)CC(=O)NN4Cc3ccccc3)C2)C1` (single isomer, unassigned) [6-6 Isomer 2], in experiment [1], the “M1 % Emax cf. ACh” value is listed as “(71) %” and the EC50 is 158 nM. For the same compound, in experiment [2], the “M4 % Emax cf. ACh” value is on record as 26) % and the EC50 is 316 nM. In experiment [3], the Emax is 3% and the EC50 is above 20000 nM. In experiment [4], the EC50 is above 20000 nM and the maximum response (Emax) stood at 4%.

Take `CCOC(=O)N1CCC2(CC(N3CCC4(CC3)OC(=O)NC4CC)C2)C1` (single isomer, unassigned) [4-12 Isomer 3]: in experiment [1], the “M1 % Emax cf. ACh” value was “(111) %” and the EC50 was 25.1 nM. Also, in experiment [2], the “M4 % Emax cf. ACh” value is reported as “(118) %” and the EC50 is 6.31 nM. Further, in experiment [3], the “M2 % Emax cf. ACh” value is “(20) %” and the EC50 was above 6310 nM. In experiment [4], the “M3 % Emax cf. ACh” value is recorded as “(8) %” and the “pEC50 M3” value is below 4.7.

`CCOC(=O)N1CCC2(CC(N3CCC4(CC3)CNC(=O)C4)C2)C1` (single isomer, unassigned) [3-2 Isomer 2]: the EC50 was 15.8 nM in experiment [1], 20 nM in experiment [2], above 20000 nM in experiment [3] and above 20000 nM in experiment [4]. Besides, the Emax in experiment [1] was 87%; in experiment [2], 50%; in experiment [3], 3%; in experiment [4], 2%.

`CCC1NC(=O)CC12CCN(C1CC3(CCN(C(=O)OC)C3)C1)CC2` (single isomer, unassigned) [3-4 Isomer 4]: in experiment [1], the “M1 % Emax cf. ACh” value is on record as “(90) %” and the EC50 was 63.1 nM. For the same compound, in experiment [2], the “M4 % Emax cf. ACh” value is “(76) %” and the EC50 was 6.31 nM. Further, in experiment [3], the “M2 % Emax cf. ACh” value is listed as “(20) %” and the “pEC50 M2” value is below 4.7. Also, in experiment [4], the “M3 % Emax cf. ACh” value is reported as “(17) %” and the “pEC50 M3” value is on record as below 4.7.

For `CCOC(=O)N1CCC2(CC(N3CCC4(CC3)OC(=O)N(CC(F)(F)F)C4(C)C)C2)C1` (single isomer, unassigned) [4-43 Isomer 2], the EC50 in experiment [1] was above 20000 nM; in experiment [2] it was 79.4 nM; in experiment [3] it was above 20000 nM; in experiment [4], above 20000 nM. The Emax in experiment [1] was found to be 6%; in experiment [2] it was 75%; in experiment [3] it was 5%; in experiment [4], 6%.

On to `CCOC(=O)N1CCC2(CC(N3CCC4(CC3)OC(=O)N(CC3CC3)C4(C)C)C2)C1` (single isomer, unassigned) [4-39 Isomer 2], for which the EC50 in experiment [1] was 794 nM; in experiment [2] it was 63.1 nM; in experiment [3], above 20000 nM; in experiment [4] it was above 20000 nM. For the same compound, the Emax in experiment [1] is 56%; in experiment [2] it was 88%; in experiment [3] it was 87%; in experiment [4] it was 8%.

As to `CCOC(=O)N1CCC2(CC(N3CCC4(CC3)OC(=O)N(CC(C)C)C4(C)C)C2)C1` (single isomer, unassigned) [4-38 Isomer 1], in experiment [1], the “M1 % Emax cf. ACh” value is on record as “(72) %” and the EC50 is 1000 nM. In addition, in experiment [2], the EC50 was 63.1 nM and the Emax was determined as 97%. Besides, in experiment [3], the “M2 % Emax cf. ACh” value is “(7) %” and the EC50 is above 20000 nM. In experiment [4], the EC50 is above 20000 nM and the “M3 % Emax cf. ACh” value is “(3) %”.

As to `CCCN1NC(=O)CC12CCN(C1CC3(CCN(C(=O)OCC)C3)C1)CC2` (single isomer, unassigned) [6-4 Isomer 2], the EC50 in experiment [1] was 31.6 nM; in experiment [2], 3.98 nM; in experiment [3] it was above 20000 nM; in experiment [4] it was above 20000 nM. Moreover, the Emax in experiment [1] worked out at 89%; in experiment [2] it was 100%; in experiment [3] it was 20%; in experiment [4] it was 26%.

Turning to `CCOC(=O)N1CCC2(CC(N3CCC4(CC3)OC(=O)N3CCCC34)C2)C1` (single isomer, unassigned) [4-44 Isomer 4], in experiment [1], the “M1 % Emax cf. ACh” value is “(67) %” and the EC50 is 1260 nM. For the same compound, in experiment [2], the “M4 % Emax cf. ACh” value was “(97) %” and the EC50 was 79.4 nM. In experiment [3], the “M2 % Emax cf. ACh” value was “(14) %” and the “pEC50 M2” value is below 4.7. Besides, in experiment [4], the “M3 % Emax cf. ACh” value is given as “(10) %” and the “pEC50 M3” value is reported as below 4.7.

For `CCOC(=O)N1CCC2(CC(N3CCC4(CC3)CNC(=O)N4)C2)C1` (single isomer, unassigned) [5-2 Isomer 2], the EC50 was 126 nM in experiment [1], 316 nM in experiment [2], above 20000 nM in experiment [3] and above 20000 nM in experiment [4]. Moreover, the maximum response (Emax) in experiment [1] is 92%; in experiment [2], 50%; in experiment [3], 143%; in experiment [4], 5%.

Take `CCN1C(=O)OC2(CCN(C3CC4(CCN(C(=O)OC)C4)C3)CC2)C1(C)C` (single isomer, unassigned) [4-34 Isomer 2]: the EC50 in experiment [1] was 2000 nM; in experiment [2], 100 nM; in experiment [3], above 20000 nM; in experiment [4], above 20000 nM. Moreover, the maximal effect (Emax) amounted to 34% in experiment [1], 83% in experiment [2], 2% in experiment [3] and 1% in experiment [4].

Regarding `COC(=O)N1CCC2(CC(N3CCC4(CC3)CC(=O)NC4Cc3ccccc3)C2)C1` (single isomer, unassigned) [3-7 Isomer 2], the EC50 is 25.1 nM in experiment [1], 79.4 nM in experiment [2], above 20000 nM in experiment [3] and above 20000 nM in experiment [4]. Further, the maximum response (Emax) in experiment [1] was 101%; in experiment [2], 57%; in experiment [3], 11%; in experiment [4] it was 14%.

On to `CCOC(=O)N1CCC2(CC(N3CCC4(CNC(=O)C4)C(F)C3)C2)C1` (single isomer, unassigned) [3-9 Isomer 2], for which the EC50 was 794 nM in experiment [1], above 20000 nM in experiment [2], above 20000 nM in experiment [3] and above 20000 nM in experiment [4]. The Emax was 62% in experiment [1], 47% in experiment [2], 4% in experiment [3] and 14% in experiment [4].

In the case of `CCOC(=O)N1CC2(CCC(N3CCC4(CC3)OC(=O)NC4(C)C)C2)C1` (single isomer, unassigned) [8-3 Isomer 2], the EC50 was above 20000 nM in experiment [1], 3.16 nM in experiment [2], above 20000 nM in experiment [3] and above 20000 nM in experiment [4]. For the same compound, the maximal response (Emax) in experiment [1] is 12%; in experiment [2] it was 39%; in experiment [3], 2%; in experiment [4] it was 4%.
